US11920136B2, “Transglutaminase-mediated conjugation” (Tallac Therapeutics, Inc., priority 2020, dated 2024)

How the values were obtained:
[1] = tested on: CD19+CD20+ B cells; test: Anti-CD22 (TNT127):CpG conjugates on human PBMCs, CD40 on CD19+ B cells (Examples 19-20); assay type: cell-based; details: conjugated to antibody TNT127 (DAR1), compared to the 12070 conjugate
Experimental: Trima residuals were received from Vitalant and diluted 1:2 with Phosphate Buffered Saline (PBS, Gibco). Diluted blood was split into two tubes and underplayed with 15 mL FICOLL® PAQUE medium (GE Healthcare). Tubes were centrifuged for 30 minutes at 400×g. PBMCs were collected from the interface, resuspended and washed in FACS buffer (PBS with 0.5% Bovine Serum Albumin (Gibco)). After one wash, PBMCs were resuspended in Complete RPMI (RPMI+10% FBS). PBMCs were immediately plated onto a 96-well format (500K/well) in Complete RPMI. Five-fold serial dilutions were added to the cells from 100 nM to 6.4 pM conjugated antibody at 37° C. under 5% CO2 for 48 hours. Cells were pelleted by centrifugation for five minutes at 400×g and stained at 4° C. in Fixable Viability Dye eFluor 780 (Thermo Fisher Scientific) diluted 1:4000 in PBS. Cells were centrifuged and stained at 4° C. in FACS buffer for 30 minutes containing FcR Blocking Reagent (Miltenyi Biotec), anti-CD19, anti-CD20, anti-CD40, anti-HLADR and anti-CD80. Cells were centrifuged and washed twice in FACS buffer and fixed in 0.5% paraformaldehyde. Cells were analyzed on ATTUNE™ NxT Flow Cytometer (Thermo Fisher Scientific), with subsequent data analysis by FLOWJO™ 10.7 (Treestar). Dead cells were excluded by gating on the eFluor 780-negative population.
The activity of CD22 antibody-CpG conjugates DAR1 and DAR2 were compared for activity.

[2] = tested on: CD19 positive B cells; test: Free CpG activity on CD40 expression by CD19+ B cells in human PBMCs (Examples 16-17); assay type: cell-based; details: compared with 12070
Experimental: (§1) Trima residuals were received from Vitalant and diluted 1:2 with Phosphate Buffered Saline (PBS, Gibco). Diluted blood was split into two tubes and underplayed with 15 mL Ficoll-Paque (GE Healthcare). Tubes were centrifuged for 30 minutes at 400×g. PBMCs were collected from the interface, resuspended and washed in FACS buffer (PBS with 0.5% Bovine Serum Albumin (Gibco)). After one wash, PBMCs were resuspended in Complete RPMI (RPMI+10% FBS).
PBMCs were immediately plated onto a 96-well format (500K/well) in Complete RPMI. Five-fold serial dilutions were added to the cells from 1 uM to 64 pM of CpG polynucleotides at 37° C. under 5% CO2 for 48 hours. Cells were pelleted by centrifugation for five minutes at 400×g and stained at 4° C. in Fixable Viability Dye eFluor 780 (Thermo Fisher) diluted 1:4000 in PBS. Cells were centrifuged and stained at 4° C. in FACS buffer for 30 minutes containing FcR Blocking Reagent (Miltenyi Biotec), anti-CD19, anti-CD20, anti-CD40, anti-HLADR and anti-CD80. Cells were centrifuged and washed twice in FACS buffer and fixed in 0.5% paraformaldehyde. Cells were analyzed on ATTUNE™ NxT Flow Cytometer (Thermo Fisher Scientific), with subsequent data analysis by FLOWJO™ 10.7 (Treestar). […] B cells were identified as CD19+CD20+ cells and level of activation marker was assessed by median fluorescent intensity. […]

[3] = tested on: EMT6 mouse mammary carcinoma cells; test: EMT6 breast cancer model, intratumoral administration; assay type: in vivo, BALB/c mice; details: intratumorally 2 doses every 3 days at 24 uM
Experimental: 100 uL of suspended cells were subcutaneously implanted into the right flank of 6 week old female BALB/c mice (Charles River). Tumor size was measured and recorded twice a week with calipers starting 7 days post implantation until duration of the study, approximately 25 days later. Tumor volume was calculated using the following formula: (length×width×width)/2. Once tumors reached on average 180 mm^3, approximately 7 days post implantation, mice were randomized by tumor size and treatments were initiated.

[4] = tested on: B cells; test: B cell activation by anti-CD22 (RFB4):CpG conjugates in human PBMCs (Examples 2 and 4); assay type: cell-based; details: for B cell activation (CD19, CD40, CD69, CD86, HLADR expression): RFB4 conjugates, DAR1, 96 hours; for B cell activation as determined by CD80 expression: conjugate to anti-CD22 antibody (SEQ ID NO: 56 and 57), DAR1, compared with conjugate of CpG (SEQ ID NO: 3) and naked CpG
Experimental: (§2) PBMCs were immediately plated onto a 96-well format (500K/well) in Complete RPMI (RPMI+10% FBS). Five-fold serial dilutions were added to the cells from 100 nM to 6.4 pM of antibody and conjugated antibody and 1 uM to 64 pM of CpG polynucleotides at 37° C. under 5% CO2 for 48 to 96 hours. Cells were pelleted by centrifugation for five minutes at 400×g and stained at 4° C. in Fixable Viability Dye eFluor 780 (Thermo Fisher Scientific) diluted 1:4000 in PBS. Cells were centrifuged and stained at 4° C. in FACS buffer for 30 minutes containing FcR Blocking Reagent (Miltenyi Biotec), anti-CD19, anti-CD20, anti-CD40, anti-HLADR and anti-CD80 for B cell assays and anti-CD14, anti-CD3, anti-CD19, anti-CD14, anti-CD123, anti-CD11 c and anti-CD86 for pDC assays. Cells were centrifuged and washed twice in FACS buffer and fixed in 0.5% paraformaldehyde. CountBright™ Absolute Counting Beads (Thermo Fisher) were added to each well to count the number of cells. Cells were analyzed on ATTUNE™ NxT Flow Cytometer (Thermo Fisher Scientific), with subsequent data analysis by Flowjo 10.7 (Treestar). Dead cells were excluded by gating on the eFluor 780-negative population. Lineage specific cells were first excluded (CD19, CD3, CD14) prior to gating CD123^+CD11c^− cells to identify pDC and gating CD19^+, CD20^+ or CD19^+CD20^+ cells to identify B cells.
as §1, with “1:4” for “1:2”, “interface and” for “interface,”, “resuspended” for “resuspended and washed”, “(Gibco)).” for “(Gibco)). After one wash, PBMCs were resuspended in Complete RPMI (RPMI+10% FBS).”
as §2, with “antiCD11” for “anti-CD11”, “COUNTBRIGHT™” for “CountBright™”, “Fisher Scientific)” for “Fisher)”
Various B-cell and pDC specific antibodies were conjugated with CpG 12070 (SEQ ID NO: 3), CpG (SEQ ID NOs: 9, 12, 20, 27 and 28), all with the DAR1 configuration, at their C-terminus heavy chain Q-tag ([…]) (SEQ ID NO: 49) via transglutaminase reaction. The conjugated antibodies were subsequently tested for their effects on proliferation and/or activation. […] As shown in FIGS. 5A-5D, the anti-CD22-CpG antibodies enhanced the activation of B cells as compared to naked CpG polynucleotide 12070 (SEQ ID NO: 3) and human IgG control antibody after 96 hours. As determined by CD19, CD40, CD69, CD86, and HLADR expression, only anti-CD22-CpG and CpG alone induced B cell activation. Direct delivery of CpG by a targeting antibody results in higher activation as compared to CpG alone.

Row | Substance | B cell activation as determined by CD80 expression [4] | further results
1 | 7-6: CpG oligonucleotide: "CpG 7-6 (SEQ ID NO:34)" (DNA UCGTCGTGTCGTTT; chemically modified, pattern not given here) |  | CD40 expression [1]: substantially better activity; CD40 expression in PBMC from three donors (D559, D804 and D643) [2]: higher activities
2 | CpG-4253: "the free CpG (CpG-4253)"; apparently "4523 murine CpG oligonucleotide", "tucgtcgtgacgtt-c3" (SEQ ID NO:121) (DNA TUCGTCGTGACGTT; 3' C3 spacer, chemistry not fully specified; listed as Mus musculus) |  | anti-tumor potency [3]: showed anti-tumor potency
3 | SEQ ID NO: 9: "modified CpGs"; tested "as an antibody-CpG conjugate" "to anti-CD22 antibody (SEQ ID NO: 56 and SEQ ID NO: 57)" (DNA UCGTCGTGTCGTTT; modified CpG; (1)..(14) Linkages as shown in Table 2 of the specification; (1)..(14) Modified as shown in Table 2 of the specification) | increased B cell activation | B cell activation (CD19, CD40, CD69, CD86, HLADR expression) [4]: enhanced activity
4 | SEQ ID NO: 12: "modified CpGs"; tested "as an antibody-CpG conjugate" "to anti-CD22 antibody (SEQ ID NO: 56 and SEQ ID NO: 57)" (DNA UCGTCGTGTCGTTT; modified CpG; (1)..(14) Linkages as shown in Table 2 of the specification; (1)..(14) Modified as shown in Table 2 of the specification) | increased B cell activation | 
5 | SEQ ID NO: 13: "modified CpGs"; tested "as an antibody-CpG conjugate" "to anti-CD22 antibody (SEQ ID NO: 56 and SEQ ID NO: 57)" (DNA UCGTCGTGTCGTTT; modified CpG; (1)..(14) Linkages as shown in Table 2 of the specification; (1)..(14) Modified as shown in Table 2 of the specification) | increased B cell activation | 
6 | SEQ ID NO: 15: "modified CpGs"; tested "as an antibody-CpG conjugate" "to anti-CD22 antibody (SEQ ID NO: 56 and SEQ ID NO: 57)" (DNA UCGTCGTGTCGTT; modified CpG; (1)..(13) Linkages as shown in Table 2 of the specification; (1)..(13) Modified as shown in Table 2 of the specification) | increased B cell activation | 
7 | SEQ ID NO: 20: "modified CpGs"; tested "as an antibody-CpG conjugate" "to anti-CD22 antibody (SEQ ID NO: 56 and SEQ ID NO: 57)" (DNA UCGTCGTGTCGTT; modified CpG; (1)..(13) Linkages as shown in Table 2 of the specification; (1)..(13) Modified as shown in Table 2 of the specification) | increased B cell activation | B cell activation (CD19, CD40, CD69, CD86, HLADR expression) [4]: enhanced activity
